Measurements taken from ChEMBL document CHEMBL1201862, “PubChem BioAssay data set” (2004).
The source made the active and inactive calls.

Legend:
[1] = target: T1, Sentrin-specific protease 8 (Homo sapiens, UniProt Q96LD8); assay: inhibition of human SENP8 cleavage activity – biochemical, luminescence, SAR follow-up (AID 504501); assay type: functional
T1 sequence (Q96LD8 whole entry): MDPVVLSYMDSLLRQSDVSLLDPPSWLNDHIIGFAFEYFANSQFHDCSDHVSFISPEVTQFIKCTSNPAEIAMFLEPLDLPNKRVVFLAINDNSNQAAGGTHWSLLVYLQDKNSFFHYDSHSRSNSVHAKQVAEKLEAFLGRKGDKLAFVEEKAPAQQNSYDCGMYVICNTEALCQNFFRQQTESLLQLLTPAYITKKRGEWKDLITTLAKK

[2] = target: T2, Sentrin-specific protease 7 (Homo sapiens, UniProt Q9BQF6); assay: inhibition of human SENP7 cleavage activity – biochemical, luminescence, SAR follow-up (AID 504497); assay type: functional
T2 sequence (Q9BQF6 whole entry): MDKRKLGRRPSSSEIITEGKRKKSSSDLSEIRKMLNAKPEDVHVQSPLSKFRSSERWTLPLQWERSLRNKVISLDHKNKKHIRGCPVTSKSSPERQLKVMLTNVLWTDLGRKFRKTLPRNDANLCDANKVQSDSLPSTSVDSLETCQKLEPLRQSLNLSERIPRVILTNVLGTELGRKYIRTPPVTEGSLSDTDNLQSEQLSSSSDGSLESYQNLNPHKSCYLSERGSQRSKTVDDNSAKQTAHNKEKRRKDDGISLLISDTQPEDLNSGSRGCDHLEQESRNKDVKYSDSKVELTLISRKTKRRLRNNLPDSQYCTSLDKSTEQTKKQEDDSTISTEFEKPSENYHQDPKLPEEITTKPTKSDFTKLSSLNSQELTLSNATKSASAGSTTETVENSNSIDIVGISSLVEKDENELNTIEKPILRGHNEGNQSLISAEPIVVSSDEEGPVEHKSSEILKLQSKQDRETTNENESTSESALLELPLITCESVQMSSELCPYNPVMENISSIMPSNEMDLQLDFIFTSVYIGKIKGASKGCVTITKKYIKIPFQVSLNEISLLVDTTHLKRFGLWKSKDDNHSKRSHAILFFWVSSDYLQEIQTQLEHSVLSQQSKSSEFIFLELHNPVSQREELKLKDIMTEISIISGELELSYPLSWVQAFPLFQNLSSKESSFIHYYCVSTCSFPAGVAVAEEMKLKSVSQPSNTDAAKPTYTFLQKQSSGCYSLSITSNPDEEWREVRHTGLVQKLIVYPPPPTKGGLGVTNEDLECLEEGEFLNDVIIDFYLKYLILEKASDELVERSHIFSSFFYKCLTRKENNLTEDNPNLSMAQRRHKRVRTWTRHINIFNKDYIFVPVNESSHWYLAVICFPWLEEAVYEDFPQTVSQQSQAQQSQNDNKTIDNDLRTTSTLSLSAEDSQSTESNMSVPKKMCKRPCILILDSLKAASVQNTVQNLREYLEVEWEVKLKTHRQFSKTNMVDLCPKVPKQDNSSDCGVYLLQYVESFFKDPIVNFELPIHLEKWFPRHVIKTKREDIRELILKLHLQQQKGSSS

[3] = target: T1, Sentrin-specific protease 8; assay type: functional
[4] = target: T3, Sentrin-specific protease 6 (Homo sapiens, UniProt Q9GZR1); assay type: functional
T3 sequence (Q9GZR1 whole entry): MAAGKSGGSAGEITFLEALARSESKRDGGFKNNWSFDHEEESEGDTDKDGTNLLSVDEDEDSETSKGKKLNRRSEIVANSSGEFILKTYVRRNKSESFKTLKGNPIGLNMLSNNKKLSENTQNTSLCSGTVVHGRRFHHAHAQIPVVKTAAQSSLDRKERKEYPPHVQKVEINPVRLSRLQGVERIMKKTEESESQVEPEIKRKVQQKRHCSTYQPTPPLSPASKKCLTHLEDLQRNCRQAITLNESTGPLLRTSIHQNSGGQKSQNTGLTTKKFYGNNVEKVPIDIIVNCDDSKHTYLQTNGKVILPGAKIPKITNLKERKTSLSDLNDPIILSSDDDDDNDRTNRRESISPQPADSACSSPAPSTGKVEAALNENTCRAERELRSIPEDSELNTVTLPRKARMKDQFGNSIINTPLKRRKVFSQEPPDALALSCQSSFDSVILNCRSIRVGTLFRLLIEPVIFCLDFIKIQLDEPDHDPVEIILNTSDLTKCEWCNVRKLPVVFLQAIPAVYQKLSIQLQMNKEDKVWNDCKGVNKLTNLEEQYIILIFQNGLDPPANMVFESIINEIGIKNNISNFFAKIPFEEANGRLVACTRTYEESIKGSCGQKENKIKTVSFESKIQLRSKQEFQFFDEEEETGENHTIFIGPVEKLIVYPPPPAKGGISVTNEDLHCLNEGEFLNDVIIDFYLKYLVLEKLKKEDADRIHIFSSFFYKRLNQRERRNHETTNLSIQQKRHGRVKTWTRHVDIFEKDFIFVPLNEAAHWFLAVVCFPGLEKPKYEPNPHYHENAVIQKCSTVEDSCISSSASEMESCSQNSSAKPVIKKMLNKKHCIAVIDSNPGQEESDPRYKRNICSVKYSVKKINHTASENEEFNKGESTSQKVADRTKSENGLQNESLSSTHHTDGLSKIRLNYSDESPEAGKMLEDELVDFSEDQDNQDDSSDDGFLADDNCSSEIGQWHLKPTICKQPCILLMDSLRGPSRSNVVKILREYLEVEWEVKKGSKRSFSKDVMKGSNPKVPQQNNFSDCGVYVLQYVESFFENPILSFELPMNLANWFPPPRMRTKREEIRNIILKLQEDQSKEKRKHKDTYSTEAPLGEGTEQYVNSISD

Caspase-3 [5] = target: T4, Caspase-3 (Homo sapiens, UniProt P42574); assay type: functional
T4 sequence (P42574 whole entry): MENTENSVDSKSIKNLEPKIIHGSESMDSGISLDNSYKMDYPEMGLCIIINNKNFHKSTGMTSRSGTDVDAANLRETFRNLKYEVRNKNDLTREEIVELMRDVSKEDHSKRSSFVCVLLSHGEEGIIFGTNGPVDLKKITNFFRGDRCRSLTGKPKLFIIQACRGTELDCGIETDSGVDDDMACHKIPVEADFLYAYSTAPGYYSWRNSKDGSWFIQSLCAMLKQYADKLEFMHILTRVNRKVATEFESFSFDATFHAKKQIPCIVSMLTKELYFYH

Caspase-3 [6] = target: T4, Caspase-3; assay: SAR Analysis of small molecule inhibitors of Sentrin-specific proteases (SENPs) using a Caspase-3 Selectivity assay. [Related pubchem assays (depositor defined):AID2540, AID2599, AID434973, AID489001]; assay type: functional
[7] = target: T3, Sentrin-specific protease 6; assay: SAR Analysis of small molecule inhibitors of Sentrin-specific protease 6 (SENP6) using a Luminescent assay. [Related pubchem assays (depositor defined):AID2582, AID2599]; assay type: functional
[8] = target: T2, Sentrin-specific protease 7; assay type: functional
Streptokinase A = target: T5, Streptokinase A (Streptococcus pyogenes serotype M1, UniProt P10520); assay: viability-normalized secreted streptokinase activity reduction – plasminogen activation absorbance, OD405, dose response (AID 1914); assay type: functional, Streptococcus pyogenes M1 GAS;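 also: secreted streptokinase activity via plasminogen activation per viability signal from cell pellet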
T5 sequence (P10520 whole entry): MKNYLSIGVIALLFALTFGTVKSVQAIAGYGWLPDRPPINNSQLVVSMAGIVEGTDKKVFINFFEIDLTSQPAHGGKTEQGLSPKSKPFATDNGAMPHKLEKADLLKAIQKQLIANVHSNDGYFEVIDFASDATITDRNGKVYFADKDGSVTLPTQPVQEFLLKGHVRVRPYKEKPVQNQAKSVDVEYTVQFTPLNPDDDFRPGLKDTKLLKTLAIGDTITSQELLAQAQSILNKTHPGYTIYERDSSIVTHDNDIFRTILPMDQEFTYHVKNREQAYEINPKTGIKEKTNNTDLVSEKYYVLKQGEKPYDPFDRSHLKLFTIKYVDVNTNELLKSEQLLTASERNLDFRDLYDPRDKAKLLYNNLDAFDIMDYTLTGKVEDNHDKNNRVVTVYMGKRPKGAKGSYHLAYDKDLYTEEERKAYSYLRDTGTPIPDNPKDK

[9] = tested on: Streptococcus sp. 'group A'; assay: Streptococcus pyogenes SK(-)GAS viability under kanamycin – luminescence, BacTiterGlo, confirmation, counter-screen for streptokinase expression inhibitor project, dose response (AID 1900); assay type: functional, organism-based
Fatty acid synthase [10] = target: T6, Fatty acid synthase (Homo sapiens, UniProt P49327); assay: inhibition of human FAS-TE enzyme activity – biochemical, kinetic fluorescence intensity, dose response (AID 624326); assay type: functional;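 also: rate of fluorescence rise from hydrolysis of a fluorogenic O-methyl fluorescein ester substrate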
[11] = non-specific 3'UTR reporter inhibition in Clone20-Shn3RL – cell-based, Renilla luciferase, cherry-picked, counter-screen for Shn3 inhibitor project, dose response (AID 624133); assay type: functional
[12] = target: T7, Mannose-6-phosphate isomerase (Homo sapiens, UniProt P34949); assay: MPI enzyme activity inhibition – biochemical, fluorescence intensity, coupled assay, primary screen (AID 1209)
T7 sequence (P34949 whole entry): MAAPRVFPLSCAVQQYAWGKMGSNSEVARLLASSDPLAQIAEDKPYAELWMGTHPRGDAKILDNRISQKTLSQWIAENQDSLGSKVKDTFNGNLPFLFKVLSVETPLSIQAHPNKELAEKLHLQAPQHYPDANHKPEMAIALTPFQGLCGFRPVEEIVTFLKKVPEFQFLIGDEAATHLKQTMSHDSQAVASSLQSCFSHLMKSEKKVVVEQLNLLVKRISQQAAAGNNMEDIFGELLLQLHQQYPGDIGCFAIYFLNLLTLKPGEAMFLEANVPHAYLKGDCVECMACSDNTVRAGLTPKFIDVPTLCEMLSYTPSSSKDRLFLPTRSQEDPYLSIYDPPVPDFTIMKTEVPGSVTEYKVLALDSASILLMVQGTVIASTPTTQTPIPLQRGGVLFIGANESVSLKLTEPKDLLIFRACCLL

[13] = loss of viability in HepG2 cells – cell-based, CellTiter-Glo, cherry-picked, cytotoxicity control for Shn3 inhibitor project, dose response (AID 624134); assay type: functional
Vero = assay: viability of Vero cells under compound – cytotoxicity control for flavivirus capping enzyme inhibitors (AID 588742); assay type: functional; settings: Chlorocebus sabaeus
[14] = reduction of Shn3 3'UTR-driven luciferase in osteoblasts – cell-based, Clone20 osteoblasts, firefly luciferase, cherry-picked, dose response (AID 624132); assay type: functional;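 also: firefly luciferase luminescence from reporter carrying the Shn3 3'UTR in osteoblasts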
[15] = target: T8, Endoribonuclease toxin MazF (Escherichia coli K-12, UniProt P0AE70); assay: activation of MazEF endoribonuclease cleavage – biochemical, fluorescence, single-stranded RNA substrate, uHTS hits, dose response (AID 588481); assay type: functional
T8 sequence (P0AE70 whole entry): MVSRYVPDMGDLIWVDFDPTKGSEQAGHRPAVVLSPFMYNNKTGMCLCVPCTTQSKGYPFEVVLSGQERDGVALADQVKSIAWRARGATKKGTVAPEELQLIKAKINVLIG

[16] = target: Glucose-6-phosphate 1-dehydrogenase (Homo sapiens, UniProt P11413); assay: inhibition of Homo sapiens G6PD, dose series – biochemical, fluorescence, selectivity assay for P. falciparum G6PD inhibitor project, dose response (AID 504792); assay type: functional
Streptococcus = assay: GAS UMAA2166 growth inhibition – luminescence, BacTiterGlo, counter-screen for streptokinase expression inhibitor project, dose response (AID 1915); assay type: functional, organism-based;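 also: potency for reduction of bacterial viability or growth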
Genome polyprotein = Genome polyprotein (dengue virus type 2, UniProt P29990); assay: flavivirus cap methylation enzyme inhibition – biochemical, confirmation dose response, primary screen (AID 588689); assay type: functional
Beta-galactosidase = Beta-galactosidase (Escherichia coli, UniProt Q8VNN2); assay: PubChem AID 485352; assay type: functional
Fatty acid synthase [17] = target: T6, Fatty acid synthase; assay: inhibition of human FAS-TE enzyme activity – biochemical, endpoint fluorescence intensity, uHTS hits, dose response (AID 624327); assay type: functional;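 also: fluorescence from hydrolysis of an O-methyl fluorescein acyl ester substrate by the enzyme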
[18] = target: T8, Endoribonuclease toxin MazF; assay: substrate-only fluorescence increase artefacts – biochemical, single-stranded RNase substrate, counter-screen for MazEF activator project, dose response (AID 588502); assay type: functional
[19] = target: T9, Type-1 angiotensin II receptor (Homo sapiens, UniProt P30556); assay: antagonism of angiotensin II type 1 receptor – cell-based, uHTS hits, selectivity assay for APJ receptor antagonist project, dose response (AID 463214); assay type: functional;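 also: antagonist potency against angiotensin II stimulated AT1 response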
T9 sequence (P30556 whole entry): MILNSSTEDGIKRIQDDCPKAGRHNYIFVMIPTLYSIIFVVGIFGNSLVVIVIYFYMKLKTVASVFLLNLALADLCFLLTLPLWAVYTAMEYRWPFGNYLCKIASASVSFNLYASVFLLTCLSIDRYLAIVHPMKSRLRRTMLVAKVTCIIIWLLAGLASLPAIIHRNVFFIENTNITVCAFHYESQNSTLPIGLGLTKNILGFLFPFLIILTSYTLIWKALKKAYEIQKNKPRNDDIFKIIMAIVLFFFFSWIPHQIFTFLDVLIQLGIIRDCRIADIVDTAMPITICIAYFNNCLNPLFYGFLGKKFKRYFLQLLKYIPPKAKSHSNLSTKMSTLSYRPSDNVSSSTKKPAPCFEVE

T6 sequence (P49327 whole entry): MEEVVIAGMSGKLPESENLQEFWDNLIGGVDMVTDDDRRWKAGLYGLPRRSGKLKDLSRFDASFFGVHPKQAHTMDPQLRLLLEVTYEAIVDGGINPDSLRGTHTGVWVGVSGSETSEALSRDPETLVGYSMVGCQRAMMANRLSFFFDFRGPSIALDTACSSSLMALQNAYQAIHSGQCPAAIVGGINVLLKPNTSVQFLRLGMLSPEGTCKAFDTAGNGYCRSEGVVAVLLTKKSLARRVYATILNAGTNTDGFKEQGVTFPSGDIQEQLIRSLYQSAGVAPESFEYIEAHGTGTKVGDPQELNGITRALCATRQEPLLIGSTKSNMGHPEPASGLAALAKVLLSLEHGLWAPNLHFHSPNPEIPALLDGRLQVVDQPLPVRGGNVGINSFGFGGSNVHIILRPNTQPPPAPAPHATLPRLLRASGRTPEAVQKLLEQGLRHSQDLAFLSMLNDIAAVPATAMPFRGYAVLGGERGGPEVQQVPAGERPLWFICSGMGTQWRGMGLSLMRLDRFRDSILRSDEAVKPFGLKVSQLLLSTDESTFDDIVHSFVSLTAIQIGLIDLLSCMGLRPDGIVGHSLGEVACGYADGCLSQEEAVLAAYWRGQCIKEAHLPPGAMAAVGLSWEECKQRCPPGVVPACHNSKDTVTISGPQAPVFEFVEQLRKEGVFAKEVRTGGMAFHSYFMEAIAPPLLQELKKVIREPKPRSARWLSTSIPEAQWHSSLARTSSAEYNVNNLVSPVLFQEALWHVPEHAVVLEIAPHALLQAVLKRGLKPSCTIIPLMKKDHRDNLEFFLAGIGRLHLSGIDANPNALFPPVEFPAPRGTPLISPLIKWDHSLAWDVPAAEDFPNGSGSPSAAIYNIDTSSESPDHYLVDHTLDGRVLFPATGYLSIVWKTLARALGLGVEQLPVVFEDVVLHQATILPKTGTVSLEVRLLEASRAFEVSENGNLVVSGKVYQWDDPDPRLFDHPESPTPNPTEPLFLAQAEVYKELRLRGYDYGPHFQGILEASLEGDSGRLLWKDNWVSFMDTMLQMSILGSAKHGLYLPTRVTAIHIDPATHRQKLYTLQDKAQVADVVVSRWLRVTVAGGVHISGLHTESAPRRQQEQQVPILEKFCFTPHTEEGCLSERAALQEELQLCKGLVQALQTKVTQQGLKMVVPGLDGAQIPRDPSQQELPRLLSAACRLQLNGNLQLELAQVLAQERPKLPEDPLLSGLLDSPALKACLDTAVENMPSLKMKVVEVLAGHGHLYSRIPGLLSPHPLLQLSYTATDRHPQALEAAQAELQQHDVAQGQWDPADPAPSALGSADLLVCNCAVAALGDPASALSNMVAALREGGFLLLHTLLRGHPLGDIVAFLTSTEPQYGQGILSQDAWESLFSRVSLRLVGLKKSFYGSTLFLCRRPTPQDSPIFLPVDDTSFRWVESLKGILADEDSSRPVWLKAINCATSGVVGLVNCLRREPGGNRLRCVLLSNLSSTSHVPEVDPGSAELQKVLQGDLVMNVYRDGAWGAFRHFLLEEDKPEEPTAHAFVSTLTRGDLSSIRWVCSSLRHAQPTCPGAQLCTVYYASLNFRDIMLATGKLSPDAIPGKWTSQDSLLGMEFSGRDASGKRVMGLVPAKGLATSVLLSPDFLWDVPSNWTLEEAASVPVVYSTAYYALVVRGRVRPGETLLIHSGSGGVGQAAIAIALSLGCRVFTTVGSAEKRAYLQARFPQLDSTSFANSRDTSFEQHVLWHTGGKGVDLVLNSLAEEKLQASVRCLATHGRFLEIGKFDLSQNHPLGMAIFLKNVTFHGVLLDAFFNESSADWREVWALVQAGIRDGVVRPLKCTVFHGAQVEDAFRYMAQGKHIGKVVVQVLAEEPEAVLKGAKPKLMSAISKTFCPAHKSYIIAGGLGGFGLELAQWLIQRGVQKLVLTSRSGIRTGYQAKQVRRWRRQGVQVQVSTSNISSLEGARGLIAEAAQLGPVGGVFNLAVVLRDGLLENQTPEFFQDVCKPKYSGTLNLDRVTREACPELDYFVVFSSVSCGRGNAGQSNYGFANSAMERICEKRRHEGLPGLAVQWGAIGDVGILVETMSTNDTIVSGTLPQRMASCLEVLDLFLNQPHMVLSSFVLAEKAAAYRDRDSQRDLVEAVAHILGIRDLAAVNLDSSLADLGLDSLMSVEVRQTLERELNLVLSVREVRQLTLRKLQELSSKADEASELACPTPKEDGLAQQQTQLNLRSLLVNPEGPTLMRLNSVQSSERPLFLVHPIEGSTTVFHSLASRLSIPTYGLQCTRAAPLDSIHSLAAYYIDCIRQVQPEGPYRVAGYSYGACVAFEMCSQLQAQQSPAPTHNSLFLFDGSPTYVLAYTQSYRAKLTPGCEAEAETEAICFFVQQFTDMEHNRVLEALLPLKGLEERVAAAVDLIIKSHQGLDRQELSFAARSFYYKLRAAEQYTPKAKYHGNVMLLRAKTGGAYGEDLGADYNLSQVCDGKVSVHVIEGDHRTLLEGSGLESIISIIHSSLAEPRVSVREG
Sequence of Glucose-6-phosphate 1-dehydrogenase (P11413 whole entry): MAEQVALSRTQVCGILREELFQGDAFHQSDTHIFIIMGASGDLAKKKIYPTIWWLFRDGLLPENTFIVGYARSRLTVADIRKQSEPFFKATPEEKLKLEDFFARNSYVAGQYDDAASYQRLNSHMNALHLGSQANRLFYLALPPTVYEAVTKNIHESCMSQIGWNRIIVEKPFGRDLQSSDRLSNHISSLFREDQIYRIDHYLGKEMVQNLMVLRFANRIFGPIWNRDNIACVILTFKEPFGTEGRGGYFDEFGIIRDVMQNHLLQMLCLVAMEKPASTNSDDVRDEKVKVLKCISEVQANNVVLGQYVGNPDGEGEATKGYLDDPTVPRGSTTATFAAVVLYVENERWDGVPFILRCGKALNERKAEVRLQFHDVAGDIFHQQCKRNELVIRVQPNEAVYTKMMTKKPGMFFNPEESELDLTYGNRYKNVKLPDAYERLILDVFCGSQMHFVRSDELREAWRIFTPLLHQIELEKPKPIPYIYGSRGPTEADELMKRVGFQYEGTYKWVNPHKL
Sequence of Genome polyprotein (P29990 2492-3391 limits assumed): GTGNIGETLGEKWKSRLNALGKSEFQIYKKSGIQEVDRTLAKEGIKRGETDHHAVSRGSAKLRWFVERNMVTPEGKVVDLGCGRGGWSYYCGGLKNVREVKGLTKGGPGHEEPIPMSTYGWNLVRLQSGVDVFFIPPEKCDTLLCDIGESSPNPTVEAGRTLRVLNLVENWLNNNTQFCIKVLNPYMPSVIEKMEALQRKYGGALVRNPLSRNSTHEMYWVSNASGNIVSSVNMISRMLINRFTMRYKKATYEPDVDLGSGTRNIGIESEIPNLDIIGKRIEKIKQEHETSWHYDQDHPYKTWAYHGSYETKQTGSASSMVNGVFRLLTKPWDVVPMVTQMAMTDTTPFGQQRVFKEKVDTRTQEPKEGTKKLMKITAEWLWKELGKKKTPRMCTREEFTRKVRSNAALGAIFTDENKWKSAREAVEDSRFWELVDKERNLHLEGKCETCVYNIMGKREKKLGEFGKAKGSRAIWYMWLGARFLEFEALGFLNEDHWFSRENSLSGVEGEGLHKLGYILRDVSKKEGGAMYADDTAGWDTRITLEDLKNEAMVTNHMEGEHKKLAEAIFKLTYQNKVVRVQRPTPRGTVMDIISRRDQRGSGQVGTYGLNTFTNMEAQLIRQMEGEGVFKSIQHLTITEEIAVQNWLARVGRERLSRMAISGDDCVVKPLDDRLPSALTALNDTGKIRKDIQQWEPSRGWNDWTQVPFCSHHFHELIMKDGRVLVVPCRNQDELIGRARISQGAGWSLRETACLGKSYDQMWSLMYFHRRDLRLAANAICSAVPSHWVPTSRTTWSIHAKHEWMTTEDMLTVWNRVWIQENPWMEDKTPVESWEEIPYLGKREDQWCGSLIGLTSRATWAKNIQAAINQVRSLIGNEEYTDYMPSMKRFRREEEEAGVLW
Sequence of Beta-galactosidase (Q8VNN2 whole entry): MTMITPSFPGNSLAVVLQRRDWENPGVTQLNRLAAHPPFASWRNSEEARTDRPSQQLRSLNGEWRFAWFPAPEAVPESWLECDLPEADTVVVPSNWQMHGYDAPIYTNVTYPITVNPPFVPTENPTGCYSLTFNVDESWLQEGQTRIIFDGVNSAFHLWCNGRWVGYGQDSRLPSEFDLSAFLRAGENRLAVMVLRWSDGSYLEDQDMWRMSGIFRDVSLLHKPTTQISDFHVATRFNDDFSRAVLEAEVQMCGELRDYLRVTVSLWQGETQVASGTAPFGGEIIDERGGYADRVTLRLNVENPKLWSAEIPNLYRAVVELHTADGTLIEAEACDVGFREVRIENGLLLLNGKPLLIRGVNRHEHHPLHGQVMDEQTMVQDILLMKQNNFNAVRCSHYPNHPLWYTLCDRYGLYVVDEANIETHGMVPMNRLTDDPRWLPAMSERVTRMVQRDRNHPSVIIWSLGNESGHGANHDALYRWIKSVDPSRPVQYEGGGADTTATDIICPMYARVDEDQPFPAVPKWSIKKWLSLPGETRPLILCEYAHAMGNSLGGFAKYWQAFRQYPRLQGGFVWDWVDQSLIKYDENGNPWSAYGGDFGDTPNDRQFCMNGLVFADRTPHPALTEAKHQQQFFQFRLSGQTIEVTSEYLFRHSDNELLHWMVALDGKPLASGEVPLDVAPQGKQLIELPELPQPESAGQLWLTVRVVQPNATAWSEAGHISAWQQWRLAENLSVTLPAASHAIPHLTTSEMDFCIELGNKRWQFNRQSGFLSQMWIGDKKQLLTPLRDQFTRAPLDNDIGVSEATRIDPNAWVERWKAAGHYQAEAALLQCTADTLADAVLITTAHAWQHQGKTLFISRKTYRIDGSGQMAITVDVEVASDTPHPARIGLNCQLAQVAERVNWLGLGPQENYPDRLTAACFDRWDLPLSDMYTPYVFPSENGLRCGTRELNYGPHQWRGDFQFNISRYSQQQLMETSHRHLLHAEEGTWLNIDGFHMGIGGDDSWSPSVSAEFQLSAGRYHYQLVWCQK

Question: Which results are given for `CC(=O)Nc1ccc(-c2nc3cc(Cl)ccc3o2)cc1`?
Answer: IC50 [1]: > 99 µM (inactive); IC50 [2]: 2.7 µM (active); IC50 [3]: > 100 µM (inactive); IC50 [4]: > 100 µM (inactive); IC50 (Caspase-3 [5]): 54.9 µM (active); IC50 (Caspase-3 [6]): 10.4 µM (active); IC50 [7]: > 99 µM (inactive); IC50 [8]: 2.77 µM (active)

Question: Which IC50 [1] does the source give for `O=C(NN=c1c(=O)c2ccccc2c1=O)c1ccncc1` here?
Answer: 33.3 µM (active)

Question: What about the IC50 [2] of the same molecule?
Answer: 17.8 µM (active)

Question: What about the IC50 (Caspase-3 [6]) of the same molecule?
Answer: 76.5 µM (active)

Question: And the IC50 [7]?
Answer: 9.3 µM (active)

Question: Which results are given for `O=[N+]([O-])c1c(NCCCO)cc(Sc2nc3ccccc3s2)c2nonc12`?
Answer: EC50 (Streptokinase A): 5.49 µM (active); EC50 [9]: 2.2 µM (active); IC50 (Fatty acid synthase [10]): 1.95 µM (active); AC50 [11]: 8.01 µM (active); IC50 [12]: > 50 µM (not active); AC50 [13]: 26.2 µM (active); CC50 (Vero): 26.2 µM (active); AC50 [14]: 1.58 µM (active); EC50 [15]: > 99 µM (inactive); IC50 [16]: > 80 µM (inactive); EC50 (Streptococcus): 3.07 µM (active); IC50 (Genome polyprotein): 23 µM (active); EC50 (Beta-galactosidase): > 40 µM (inactive); IC50 (Fatty acid synthase [17]): 2.37 µM (active); EC50 [18]: 44.1 µM (inactive); IC50 [19]: 2.05 µM (active)
